Results from patent publication US11679107B2 (Eisai R&D Management Co., Ltd., priority 2018, dated 2023).
Where two headings read alike, the source gives them in different places.

Assays:
SF3b complexes = target: T1, SF3b complexes (Homo sapiens, UniProt O75533+Q7RTV0); assay: Scintillation proximity assay (SPA) with [3H]-labelled pladienolide probe; format: binding; conditions: SF3B1 (WT); geometric mean; read-out: SPA-ATS GMean IC50 (nM) SF3B1 (WT)
T1 construct: endogenous in cells; host or cells: Nuclear extracts; A HeLa S3 extract preparation is described for the in vitro splicing assay
In short: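 SF3b complexes captured from nuclear extracts on anti-SF3B1 antibody SPA beads; test compounds pre-incubated 30 min before 2.5 nM [3H]-pladienolide probe added, then 30 min incubation. Bound probe read by scintillation; values from non-linear regression of concentration–response curves.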

[1] = system: Ad2 variant pre-mRNAs spliced in HeLa S3 nuclear extracts; assay: In vitro splicing assay (IVS), RT-qPCR of spliced product; format: biochemical; conditions: for IC50: geometric mean; for Ratio Ad2.1/2.2: ratio of IVS IC50 Ad2.1 to Ad2.2
In short: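 Read-out is one-step TaqMan RT-qPCR of spliced Ad2 mRNA with Ftz as reference, normalized to DMSO and fit by non-linear regression. Reactions held HeLa S3 nuclear extract, 2 ng Ad2-derived pre-mRNA and test compound, with 15 min preincubation. Splicing was started with ATP-containing activation buffer and run 90 min at 30 °C.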

[2] = system: NCI-H1568 cells (high MCL1); assay: Cell proliferation and viability, CellTiter-Glo, 72 hours; format: cell-based; conditions: for GI50: geometric mean
In short: (§1)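 ATP luminescence (CellTiter-Glo) was measured 72 h after treatment with compound at 10 μM–100 pM (11 points, half-log) in 0.1% DMSO. The Panc line was grown in RPMI-1640 plus insulin and 15% FBS, the other in 10% FBS. Data were normalised to time zero and vehicle controls, where −100% is cidal and 0% static.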

[3] = system: Panc 05.04 cells (SF3b K700E mutant); assay: as above; format: cell-based; conditions: for GI50: geometric mean
In short: as §1

[4] = Ad2.1 pre-mRNA substrate, read-out: qPCR-IVS-ATS GMean IC50 (nM) Ad2.1
[5] = Ad2.2 pre-mRNA substrate, read-out: qPCR-IVS-ATS GMean IC50 (nM) Ad2.2
[6] = 72 h, NCIH1568.1, -100% = cidal, 0% = static, 100% = uninhibited growth
[7] = NCI-H1568, read-out: CTGlo-ATS GMean GI50 (nM) 72 h NCIH1568.1, 72 h, NCIH1568.1
[8] = 72 h, PANC0504.1, -100% = cidal, 0% = static, 100% = uninhibited growth
[9] = Panc 05.04, read-out: CTGlo-ATS GMean GI50 (nM) 72 h PANC0504.1, 72 h, PANC0504.1
[10] = NCI-H1568, read-out: CTGlo-ATS GMean GI50 (nM) 72 h NCIH1568.1, NCIH1568.1 cells, 72 h
[11] = NCIH1568.1 cells, 72 h, −100% cidal, 0% static, 100% maximal growth
[12] = PANC0504.1 cells, 72 h, −100% cidal, 0% static, 100% maximal growth
[13] = Panc 05.04, read-out: CTGlo-ATS GMean GI50 (nM) 72 h PANC0504.1, PANC0504.1 cells, 72 h
[14] = NCI-H1568, 72 h, read-out: CTGlo-ATS GMean GI50 (nM) 72 h NCIH1568.1, 72 h, NCIH1568.1
[15] = Panc 05.04, 72 h, read-out: CTGlo-ATS GMean GI50 (nM) 72 h PANC0504.1, 72 h, PANC0504.1
[16] = NCI-H1568, 72 h, read-out: CTGlo-ATS GMean GI50 (nM) 72 h NCIH1568.1, NCIH1568.1 cells, 72 h
[17] = Panc 05.04, 72 h, read-out: CTGlo-ATS GMean GI50 (nM) 72 h PANC0504.1, PANC0504.1 cells, 72 h

C/C(=C\c1cc(F)cc(N2CCOCC2)c1)[C@H]1OC(=O)C[C@H](O)CC[C@H](C)[C@@H](OC(=O)N2CCN(C)C(C)(C)C2)/C=C/[C@@H]1C [Compound 246, [(2S,3S,4E,6R,7S,10R)-2-[(E)-1-(3-fluoro-5-morpholin-4-ylphenyl)prop-1-en-2-yl]-10-hydroxy-3,7-dimethyl-12-oxo-1-oxacyclododec-4-en-6-yl] 3,3,4-trimethylpiperazine-1-carboxylate]
IC50 (SF3b complexes): 5.8 nM | IC50 [1, 4]: 279 nM | IC50 [1, 5]: 36.1 nM | Ratio Ad2.1/2.2 [1]: 7.730 | CTGlo-ATS Mean MinResponse % 72 h NCIH1568.1 [2, 6]: −68.331% | GI50 [2, 7]: 12.1 nM | CTGlo-ATS Mean MinResponse % 72 h PANC0504.1 [3, 8]: −95.467% | GI50 [3, 9]: 16.5 nM

CC[C@H](O)[C@@H](C)C(=O)N1CCN(c2cc(F)cc(/C=C(\C)[C@H]3OC(=O)C[C@H](O)CC[C@H](C)[C@@H](OC(=O)N4CCN(C)CC4)/C=C/[C@@H]3C)c2)CC1 [Compound 72]
IC50 (SF3b complexes): 4.66 nM | IC50 [1, 4]: 35.8 nM | IC50 [1, 5]: 14 nM | GI50 [2, 10]: 4.19 nM | CTGlo-ATS Mean MinResponse % 72 h NCIH1568.1 [2, 11]: −80.730% | CTGlo-ATS Mean MinResponse % 72 h PANC0504.1 [3, 12]: −75.581% | GI50 [3, 13]: 5.68 nM

C/C(=C\c1cccc(S(=O)(=O)N2CCCC2)c1)[C@H]1OC(=O)C[C@H](O)CC[C@H](C)[C@@H](OC(=O)N2CCN(C)CC2)/C=C/[C@@H]1C [Compound 214, [(2S,3S,4E,6R,7S,10R)-10-hydroxy-3,7-dimethyl-12-oxo-2-[(E)-1-(3-pyrrolidin-1-ylsulfonylphenyl)prop-1-en-2-yl]-1-oxacyclododec-4-en-6-yl] 4-methylpiperazine-1-carboxylate]
IC50 (SF3b complexes): 2.3 nM | IC50 [1, 4]: 3920 nM | IC50 [1, 5]: 19.2 nM | Ratio Ad2.1/2.2 [1]: 204.217 | CTGlo-ATS Mean MinResponse % 72 h NCIH1568.1 [2, 6]: −48.793% | GI50 [2, 14]: 6.37 nM | CTGlo-ATS Mean MinResponse % 72 h PANC0504.1 [3, 8]: −91.986% | GI50 [3, 15]: 3.29 nM

C/C(=C\c1cc(F)cc(N2CCS(=O)(=O)CC2)c1)[C@H]1OC(=O)C[C@H](O)CC[C@H](C)[C@@H](OC(=O)N2CCN(C)CC2)/C=C/[C@@H]1C [Compound 52]
IC50 (SF3b complexes): 8.3 nM | IC50 [1, 4]: 39.6 nM | IC50 [1, 5]: 45.4 nM | GI50 [2, 16]: 23.3 nM | CTGlo-ATS Mean MinResponse % 72 h NCIH1568.1 [2, 11]: −63.079% | CTGlo-ATS Mean MinResponse % 72 h PANC0504.1 [3, 12]: −76.609% | GI50 [3, 17]: 13.6 nM

CCNS(=O)(=O)c1cccc(/C=C(\C)[C@H]2OC(=O)CC(O)CCC(C)[C@@H](OC(=O)N3CCN(C)CC3)/C=C/[C@@H]2C)c1 (stereo in doubt) [Compound 210, [(2S,3S,4E,6R,7R,10S)-2-[(E)-1-[3-(ethylsulfamoyl)phenyl]prop-1-en-2-yl]-10-hydroxy-3,7-dimethyl-12-oxo-1-oxacyclododec-4-en-6-yl] 4-methylpiperazine-1-carboxylate]
IC50 (SF3b complexes): 4.35 nM | IC50 [1, 4]: 11000 nM | IC50 [1, 5]: 32.7 nM | Ratio Ad2.1/2.2 [1]: 336.112 | CTGlo-ATS Mean MinResponse % 72 h NCIH1568.1 [2, 6]: −51.154% | GI50 [2, 14]: 17 nM | CTGlo-ATS Mean MinResponse % 72 h PANC0504.1 [3, 8]: −96.896% | GI50 [3, 15]: 27.8 nM

C/C(=C\c1cccc2c1c(C)nn2C)[C@H]1OC(=O)C[C@H](O)CC[C@H](C)[C@@H](OC(=O)N2CCN(C)CC2)/C=C/[C@@H]1C [Compound 97]
IC50 (SF3b complexes): 240 nM | IC50 [1, 4]: > 25000 nM | IC50 [1, 5]: 2890 nM | GI50 [2, 10]: 4370 nM | CTGlo-ATS Mean MinResponse % 72 h NCIH1568.1 [2, 11]: 11.801% | CTGlo-ATS Mean MinResponse % 72 h PANC0504.1 [3, 12]: 46.987% | GI50 [3, 13]: 9140 nM

C/C(=C\c1cc(F)cc(N2CCCC2=O)c1)[C@H]1OC(=O)C[C@H](O)CC[C@H](C)[C@@H](OC(=O)N2CCN(C)CC2)/C=C/[C@@H]1C [Compound 42]
IC50 (SF3b complexes): 2.92 nM | IC50 [1, 4]: 330 nM | IC50 [1, 5]: 12.6 nM | GI50 [2, 10]: 6.13 nM | CTGlo-ATS Mean MinResponse % 72 h NCIH1568.1 [2, 11]: −63.030% | CTGlo-ATS Mean MinResponse % 72 h PANC0504.1 [3, 12]: −86.319% | GI50 [3, 13]: 4.76 nM

C/C(=C\c1cc(F)cc(N2CCOCC2)c1)[C@H]1OC(=O)C[C@H](O)CC[C@H](C)[C@@H](OC(=O)N2CCN(CCO)CC2)/C=C/[C@@H]1C [Compound 21]
IC50 (SF3b complexes): 10.3 nM | IC50 [1, 4]: 1610 nM | IC50 [1, 5]: 52.3 nM | GI50 [2, 10]: 31.2 nM | CTGlo-ATS Mean MinResponse % 72 h NCIH1568.1 [2, 11]: −50.841% | CTGlo-ATS Mean MinResponse % 72 h PANC0504.1 [3, 12]: −90.919% | GI50 [3, 13]: 23.6 nM

C/C(=C\c1cc(F)cc(N2CCOCC2)c1)[C@H]1OC(=O)C[C@H](O)CC[C@H](C)[C@@H](OC(=O)N(C)C2CCN(C)CC2)/C=C/[C@@H]1C [Compound 22]
IC50 (SF3b complexes): 5.76 nM | IC50 [1, 4]: 876 nM | IC50 [1, 5]: 38.8 nM | GI50 [2, 10]: 12.8 nM | CTGlo-ATS Mean MinResponse % 72 h NCIH1568.1 [2, 11]: −69.453% | CTGlo-ATS Mean MinResponse % 72 h PANC0504.1 [3, 12]: −84.195% | GI50 [3, 13]: 11.6 nM

C/C(=C\c1ccc2nccn2c1)[C@H]1OC(=O)C[C@H](O)CC[C@H](C)[C@@H](OC(=O)N2CCN(C)CC2)/C=C/[C@@H]1C [Compound 88, [(2S,3S,4E,6R,7S,10R)-10-hydroxy-2-[(E)-1-imidazo[1,2-a]pyridin-6-ylprop-1-en-2-yl]-3,7-dimethyl-12-oxo-l-oxacyclododec-4-en-6-yl] 4-methylpiperazine-1-carboxylate]
IC50 (SF3b complexes): 1.02 nM | IC50 [1, 4]: > 25000 nM | IC50 [1, 5]: 154 nM | GI50 [2, 16]: 157 nM | CTGlo-ATS Mean MinResponse % 72 h NCIH1568.1 [2, 11]: −20.194% | CTGlo-ATS Mean MinResponse % 72 h PANC0504.1 [3, 12]: −5.029% | GI50 [3, 17]: 86.3 nM

C/C(=C\c1cc(F)cc(NC(=O)CC2CC2)c1)[C@H]1OC(=O)C[C@H](O)CC[C@H](C)[C@@H](OC(=O)N2CCN(C)CC2)/C=C/[C@@H]1C [Compound 250, [(2S,3S,4E,6R,7S,10R)-2-[(E)-1-[3-[(2-cyclopropylacetyl)amino]-5-fluorophenyl]prop-1-en-2-yl]-10-hydroxy-3,7-dimethyl-12-oxo-1-oxacyclododec-4-en-6-yl] 4-methylpiperazine-1-carboxylate]
IC50 (SF3b complexes): 3.63 nM | IC50 [1, 4]: 2190 nM | IC50 [1, 5]: 44.1 nM | Ratio Ad2.1/2.2 [1]: 49.517 | CTGlo-ATS Mean MinResponse % 72 h NCIH1568.1 [2, 6]: −58.677% | GI50 [2, 7]: 15.6 nM | CTGlo-ATS Mean MinResponse % 72 h PANC0504.1 [3, 8]: −94.381% | GI50 [3, 9]: 23.1 nM

C/C(=C\c1ccc2c(F)nn(CC3CC3)c2c1)[C@H]1OC(=O)C[C@H](O)CC[C@H](C)[C@@H](OC(=O)N2CCN(C)CC2)/C=C/[C@@H]1C [Compound 133]
IC50 (SF3b complexes): 6.99 nM | IC50 [1, 4]: 1670 nM | IC50 [1, 5]: 92.5 nM | GI50 [2, 10]: 17.7 nM | CTGlo-ATS Mean MinResponse % 72 h NCIH1568.1 [2, 11]: −69.167% | CTGlo-ATS Mean MinResponse % 72 h PANC0504.1 [3, 12]: −94.957% | GI50 [3, 13]: 25.6 nM
